In this test the target is T1, ALK 5 (Homo sapiens, UniProt P36897).
T1 sequence (P36897 34-503): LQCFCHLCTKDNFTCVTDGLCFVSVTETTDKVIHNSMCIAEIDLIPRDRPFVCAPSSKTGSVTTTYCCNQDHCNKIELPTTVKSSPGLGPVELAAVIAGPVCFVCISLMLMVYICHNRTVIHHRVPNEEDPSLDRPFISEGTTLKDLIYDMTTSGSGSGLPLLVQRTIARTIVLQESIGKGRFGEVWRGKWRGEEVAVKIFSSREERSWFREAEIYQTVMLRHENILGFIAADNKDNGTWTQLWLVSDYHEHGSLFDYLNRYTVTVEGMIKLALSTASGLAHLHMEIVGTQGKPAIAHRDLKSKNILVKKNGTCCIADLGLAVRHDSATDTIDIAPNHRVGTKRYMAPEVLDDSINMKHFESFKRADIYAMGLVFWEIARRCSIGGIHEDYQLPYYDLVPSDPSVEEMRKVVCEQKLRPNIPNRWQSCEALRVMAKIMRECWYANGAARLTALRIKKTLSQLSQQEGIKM
The test is described as follows: In vitro kinase assay (ALK5 IC50, LanthaScreen Terbium labeled TR-FRET). In kind it is biochemical. Conditions: TGF-β kinase 6 nM, ATP 10 μM, read-out: Enzyme Activity ALK 5 IC50. As to the method: Compounds of the invention were screened in an in vitro kinase assay against ALK 5, a members of the TGF-β family of Ser/Thr kinases. Standard kinase testing conditions and techniques were employed. IC50 values of compounds against TGF-ß kinase was determined by LanthaScreen™ Terbium Labeled TR-FRET assay. Kinase assays were performed in 1X kinase buffer (# PV6135, Invitrogen, Life Technologies Grand Island, N.Y.) where total reaction volume was 10 μL in low-volume 384-well plates (#4511, Corning). Serially diluted compounds (3-fold) were incubated with TGF-β kinase (6 nM) for 10 min, following which a mixture of ATP (10 μM) (# A1852, Sigma, St-Louis, Mo.) and fluorescent-PolyGT substrate (200 nM); Cat # PV3610, Invitrogen, Life Technologies Grand Island, N.Y.) was added and incubated in dark at room temperature for 1 h. After 1 h, 10 μL stop solution containing Terbium labeled antibody (4 nM; Cat # PV3529, Invitrogen, Life Technologies Grand Island, N.Y.) and EDTA (# E5134, Sigma, St-Louis, Mo.; 20 mM) in TR-FRET dilution buffer (Cat # PV3574, Invitrogen, Life Technologies Grand Island, N.Y.) was added. Readings were taken in a Synergy Neo Plate reader (BioTek, Winooski) at single excitation of 340 nm and Dual emission at 495 nm and 520 nm respectively.
The % activity of test samples was calculated as (Sample-Min)×100/(Max −Min). [Max: DMSO control, complete reaction with enzyme with DMSO and Min: No enzyme with DMSO]. Percent inhibition (100-% activity) was fitted to the “four-parameter logistic model” in XLfit for determination of IC50 values.

`CC(C)c1[nH]c(=O)c(-c2cc(Cl)ccc2F)cc1Nc1ccnc(NC(=O)CN2CCCC2)c1` [Compound 1.47, N-(4-((5-(5-chloro-2-fluorophenyl)-2-isopropyl-6-oxo-1,6-dihydropyridin-3-yl)amino)pyridin-2-yl)-2-(pyrrolidin-1-yl)acetamide]: the IC50 is at most 0.5 µM. The value for `CC(C)c1[nH]c(=O)c(-c2cc(Cl)ccc2F)cc1Nc1ccnc(NC2CC2)c1` [Compound 1.55, 3-(5-chloro-2-fluorophenyl)-5-((2-(cyclopropylamino)pyridin-4-yl)amino)-6-isopropylpyridin-2(1H)-one] was 2 to 5 µM. On to `Cc1cnc(Nc2cc(Nc3cc(-c4cc(Cl)ccc4F)c(=O)[nH]c3C3CC3)ccn2)s1` [Compound 1.77, 3-(5-chloro-2-fluorophenyl)-6-cyclopropyl-5-((2-((5-methylthiazol-2-yl)amino)pyridin-4-yl)amino)pyridin-2(1H)-one], for which the IC50 is 2 to 5 µM. In the case of `COc1[nH]c(=O)c(-c2cc(Cl)ccc2F)cc1Nc1ccnc(NC(C)=O)c1` [Compound 1.75, N-(4-((5-(5-chloro-2-fluorophenyl)-2-methoxy-6-oxo-1,6-dihydropyridin-3-yl)amino)pyridin-2-yl)acetamide], the IC50 is at most 0.5 µM.

On to `CC(C)c1[nH]c(=O)c(-c2cc(Cl)ccc2F)cc1Nc1ccnc(NC(=O)C2CC2)c1` [Compound 1.45, N-(4-((5-(5-chloro-2-fluorophenyl)-2-isopropyl-6-oxo-1,6-dihydropyridin-3-yl)amino)pyridin-2-yl)cyclopropanecarboxamide], for which the IC50 was over 5 µM.

Consider `Cc1cccc(-c2cc(Nc3ccnc4[nH]ccc34)c(N(C)C)[nH]c2=O)n1` [Compound 1.13, 5′-((1H-pyrrolo[2,3-b]pyridin-4-yl)amino)-6′-(dimethylamino)-6-methyl-[2,3′-bipyridin]-2′(1′H)-one], for which the IC50 was in the range of 2 to 5 µM. As for `CC(C)c1[nH]c(=O)c(-c2ccccc2F)cc1Nc1ccncc1C(=O)NC[C@H](C)O` [Compound 1.3, (S)-4-((5-(2-fluorophenyl)-2-isopropyl-6-oxo-1,6-dihydropyridin-3-yl)amino)-N-(2-hydroxypropyl)nicotinamide], the IC50 was 2 to 5 µM.

Turning to `Cc1cccc(-c2cc(Nc3ccncc3C(=O)NC[C@H](C)O)c(N(C)C)[nH]c2=O)n1` [Compound 1.27, (S)-4-((6′-(dimethylamino)-6-methyl-2′-oxo-1′,2′-dihydro-[2,3′-bipyridin]-5′-yl)amino)-N-(2-hydroxypropyl)nicotinamide], the IC50 was over 5 µM.

As for `CN(C)c1[nH]c(=O)c(-c2cc(Cl)ccc2F)cc1Nc1ccnc2ccccc12` [Compound 1.16, 3-(5-chloro-2-fluorophenyl)-6-(dimethylamino)-5-(quinolin-4-ylamino)pyridin-2(1H)-one], the IC50 is over 5 µM.

For `CN(C)c1[nH]c(=O)c(-c2cc(Cl)ccc2F)cc1Nc1ccncc1C#N` [Compound 1.34, 4-((5-(5-chloro-2-fluorophenyl)-2-(dimethylamino)-6-oxo-1,6-dihydropyridin-3-yl)amino)nicotinonitrile], the IC50 is over 5 µM. With `CCc1[nH]c(=O)c(-c2cc(Cl)ccc2F)cc1Nc1ccncc1C(=O)NC` [Compound 1.72, 4-((5-(5-chloro-2-fluorophenyl)-2-ethyl-6-oxo-1,6-dihydropyridin-3-yl)amino)-N-methylnicotinamide], the IC50 is at most 0.5 µM. For the compound `CN1CCn2c1c(Nc1ccnc3[nH]ccc13)cc(-c1cc(Cl)ccc1F)c2=O` [Compound 1.18, 8-((1H-pyrrolo[2,3-b]pyridin-4-yl)amino)-6-(5-chloro-2-fluorophenyl)-1-methyl-2,3-dihydroimidazo[1,2-a]pyridin-5(1H)-one], the IC50 was at most 0.5 µM. Regarding `C[C@H](CO)NC(=O)c1cnccc1Nc1cc(-c2cc(Cl)ccc2F)c(=O)n2c1N(C)CC2` [Compound 1.23, (R)-4-((6-(5-chloro-2-fluorophenyl)-1-methyl-5-oxo-1,2,3,5-tetrahydroimidazo[1,2-a]pyridin-8-yl)amino)-N-(1-hydroxypropan-2-yl)nicotinamide], the IC50 is over 5 µM. The value for `C[C@H](O)CNC(=O)c1cnccc1Nc1cc(-c2cc(Cl)ccc2F)c(=O)n2c1N(C)CC2` [Compound 1.19, (S)-4-((6-(5-chloro-2-fluorophenyl)-1-methyl-5-oxo-1,2,3,5-tetrahydroimidazo[1,2-a]pyridin-8-yl)amino)-N-(2-hydroxypropyl)nicotinamide] was 2 to 5 µM. Take `CN(C)c1[nH]c(=O)c(-c2cc(Cl)ccc2F)cc1Nc1ccnc2c1ccn2C` [Compound 1.28, 3-(5-chloro-2-fluorophenyl)-6-(dimethylamino)-5-((1-methyl-1H-pyrrolo[2,3-b]pyridin-4-yl)amino)pyridin-2(1H)-one]: the IC50 was over 5 µM. `Cc1cc(-c2cc(Nc3ncnc4c3CC(=O)N4)c(C(C)C)[nH]c2=O)ccc1F` [Compound 1.82, 4-((5-(4-fluoro-3-methylphenyl)-2-isopropyl-6-oxo-1,6-dihydropyridin-3-yl)amino)-5,7-dihydro-6H-pyrrolo[2,3-d]pyrimidin-6-one]: the IC50 was 2 to 5 µM. On to `CN(C)c1[nH]c(=O)c(-c2cc(Cl)ccc2F)cc1Nc1ccncc1C(=O)NC(C)(C)CO` [Compound 1.31, 4-((5-(5-chloro-2-fluorophenyl)-2-(dimethylamino)-6-hydroxypyridin-3-yl)amino)-N-(1-hydroxy-2-methylpropan-2-yl)nicotinamide], for which the IC50 is over 5 µM. `CC(=O)Nc1cc(Nc2cc(-c3ccc(F)c(C)c3)c(=O)[nH]c2C(C)C)ccn1` [Compound 1.83, N-(4-((5-(4-fluoro-3-methylphenyl)-2-isopropyl-6-oxo-1,6-dihydropyridin-3-yl)amino)pyridin-2-yl)acetamide]: the IC50 is at most 0.5 µM. As to `CNC(=O)c1cnccc1Nc1cc(-c2cc(Cl)ccc2F)c(=O)[nH]c1N(C)C` [Compound 1.38, 4-((5-(5-chloro-2-fluorophenyl)-2-(dimethylamino)-6-oxo-1,6-dihydropyridin-3-yl)amino)-N-methylnicotinamide], the IC50 lay within 0.5 to 2 µM. In the case of `CC(C)c1[nH]c(=O)c(-c2cc(Cl)ccc2F)cc1Nc1ccnc(NC(=O)CCC(F)(F)F)c1` [Compound 1.46, N-(4-((5-(5-chloro-2-fluorophenyl)-2-isopropyl-6-oxo-1,6-dihydropyridin-3-yl)amino)pyridin-2-yl)-4,4,4-trifluorobutanamide] it was over 5 µM; in that of `CN(C)c1[nH]c(=O)c(-c2cc(Cl)ccc2F)cc1Nc1ccncc1C(=O)NC1CC1` [Compound 1.30, 4-((5-(5-chloro-2-fluorophenyl)-2-(dimethylamino)-6-hydroxypyridin-3-yl)amino)-N-cyclopropylnicotinamide], 2 to 5 µM; in that of `CN(C)c1[nH]c(=O)c(-c2cc(Cl)ccc2F)cc1Nc1ccncc1` [Compound 1.14, 3-(5-chloro-2-fluorophenyl)-6-(dimethylamino)-5-(pyridin-4-ylamino)pyridin-2(1H)-one], over 5 µM. As to `CC(=O)Nc1cc(Nc2cc(-c3ccc(F)nc3)c(=O)[nH]c2C(C)C)ccn1` [Compound 1.51, N-(4-((6′-fluoro-6-isopropyl-2-oxo-1,2-dihydro-[3,3′-bipyridin]-5-yl)amino)pyridin-2-yl)acetamide], the IC50 is over 5 µM. Consider `CC(C)c1[nH]c(=O)c(-c2cc(Cl)ccc2F)cc1Nc1ccnc2c1CCC(=O)N2` [Compound 1.62, 5-((5-(5-chloro-2-fluorophenyl)-2-isopropyl-6-oxo-1,6-dihydropyridin-3-yl)amino)-3,4-dihydro-1,8-naphthyridin-2(1H)-one], for which the IC50 was over 5 µM.

The values above are taken from patent publication US20200247812A1 (Integral Biosciences Private Limited, priority 2018, published 2020).
